{"source": "patent US20140249156A1", "about": "“Treatment Of Blood Lipid Abnormalities And Other Conditions” (GlaxoSmithKline LLC, priority 2011, published 2014)", "key": {"male Crl:CD(SD) rats": {"test_system": "male Crl:CD(SD) rats", "experiment": "Appearance of radiolabeled cholesterol (chylomicrons) in circulation after labeled oral fat challenge with triton block", "format": "in vivo, rat", "details": "vs vehicle; for appearance of 3H cholesterol (CPM) in the serum: 3H cholesterol tracer", "text": "A rat model (male Crl:CD(SD) rats) was used for the evaluation of a diverse set of GPR119 agonists. The objective of the studies was to determine if administration of a single dose of an agonist affects the appearance of chylomicrons containing either ^3H- or ^14C-cholesterol in circulation of fasted Crl:CD(SD) rats.\nIn order to track chylomicron appearance in circulation, radiolabeled cholesterol (with or without radiolabeled retinol) was co-administered with olive oil by oral gavage. Both tracers label the chylomicron core as the cholesterol administered is esterified in the enterocyte, packaged into the chylomicron, and released into the lymphatic system for transport to the systemic circulation. In order to assess appearance and accumulation of the newly formed chylomicrons in circulation, triton was administered by intravenous injection to block the clearance of these particles from circulation.\nThe rats had been previously instrumented with an implanted jugular catheter to facilitate obtaining multiple blood samples without stress to the animal. Rats were fasted overnight prior to labeled oral fat challenge. All compounds were dosed one hour prior to the challenge test. Treatment groups were randomized by body weight.\nAll compounds were administered at 5 mL/kg by the oral route as suspensions in hydroxypropylmethylcellulose (0.5%) which contained 0.1% Tween 80. Triton (250 mg/kg) was administered by intravenous injection immediately prior to an oral gavage of the tracer mixed with olive oil. Total volume of olive oil administered per rat was 2 mL, which contained (per 2 mL olive oil) either:\n5-10 uCi ^14C-cholesterol (alone or in combination with 80 uCi ^3H-retinol)\n5-20 uCi ^3H-cholesterol.\nBlood samples were taken at the following time points: 0.25, 0.5, 0.75, 1, 2, 3, 4, 5 and 6 hours post olive oil gavage. Samples were spun at 8,000×g for 8 minutes at room temperature and 100 uL aliquots of serum counted for ^3H or ^14C."}, "humans": {"test_system": "humans", "details": "cited from earlier work"}, "[1]": {"details": "single oral dose 30 mg/kg one hour before olive oil containing 14C cholesterol"}, "[2]": {"details": "previously discovered, patients"}}, "data": [{"smiles": "CC(C)c1noc(N2CCC(COc3ccc(-c4ccc(S(C)(=O)=O)cc4)nc3)CC2)n1", "note": "[Compound A, 5-[({1-[3-(1-methylethyl)-1,2,4-oxadiazol-5-yl]-4-piperidinyl}methyl)oxy]-2-[4-(methylsulfonyl)phenyl]pyridine]", "values": [{"measurement": "appearance of 3H cholesterol (CPM) in the serum", "setting": "male Crl:CD(SD) rats; single oral dose 3 mg/kg", "value": "decreased"}, {"measurement": "appearance of 14C labeled chylomicrons in circulation", "setting": "male Crl:CD(SD) rats; single oral dose 3 mg/kg, olive oil containing 14C cholesterol", "value": "significantly reduced"}, {"measurement": "appearance of 3H cholesterol (CPM) in the serum", "setting": "male Crl:CD(SD) rats; single oral dose 10 mg/kg", "value": "decreased"}, {"measurement": "appearance of 14C labeled chylomicrons in circulation", "setting": "male Crl:CD(SD) rats; single oral dose 10 mg/kg, olive oil containing 14C cholesterol", "value": "significantly reduced"}, {"measurement": "appearance of 14C labeled chylomicrons in circulation", "setting": "male Crl:CD(SD) rats; [1]", "value": "significantly reduced"}, {"measurement": "fasting ApoB/B100", "setting": "humans; humans", "value": "reducing"}, {"measurement": "fasting ApoB/B100:ApoA1 ratio", "setting": "humans; humans", "value": "reducing"}, {"measurement": "fasting ApoE", "setting": "humans; humans", "value": "reducing"}, {"measurement": "fasting HDL cholesterol", "setting": "humans; humans", "value": "increasing"}, {"measurement": "fasting LDL cholesterol", "setting": "humans; humans", "value": "reduced"}, {"measurement": "fasting LDL cholesterol:HDL cholesterol ratio", "setting": "humans; humans", "value": "reducing"}, {"measurement": "fasting non-HDL cholesterol", "setting": "humans; humans", "value": "reducing"}, {"measurement": "fasting plasma alanine aminotransferase", "setting": "humans; humans", "value": "reducing"}, {"measurement": "fasting plasma uric acid", "setting": "humans; humans", "value": "reducing"}, {"measurement": "fasting total cholesterol", "setting": "humans; humans", "value": "reducing"}, {"measurement": "fasting total cholesterol:HDL cholesterol ratio", "setting": "humans; humans", "value": "reducing"}, {"measurement": "fasting triglycerides", "setting": "humans; humans", "value": "reducing"}, {"measurement": "prandial triglycerides", "setting": "humans; humans", "value": "reducing"}, {"measurement": "rise in serum triglycerides that occurs following meals", "setting": "humans; patients treated with Compound A", "value": "significantly blunted"}, {"measurement": "HDL cholesterol", "setting": "humans; [2]", "value": "raises"}, {"measurement": "LDL cholesterol", "setting": "humans; [2]", "value": "lowers"}, {"measurement": "total cholesterol", "setting": "humans; [2]", "value": "lowers"}]}, {"smiles": "CC(C)c1noc(N2CCC([C@H](C)Oc3cnc(-c4ccc(S(C)(=O)=O)cc4)cn3)CC2)n1", "note": "[Compound B, 2-[((1S)-1-{1-[3-(1-methylethyl)-1,2,4-oxadiazol-5-yl]-4-piperidinyl}ethyl)oxy]-5-[4-(methylsulfonyl)phenyl]pyrazine]", "values": [{"measurement": "appearance of 14C labeled chylomicrons in circulation", "setting": "male Crl:CD(SD) rats; [1]", "value": "significantly reduced"}, {"measurement": "appearance of 3H cholesterol (CPM) in the serum", "setting": "male Crl:CD(SD) rats; single oral dose 30 mg/kg", "value": "decreased"}]}, {"smiles": "Cc1ncccc1Oc1ncnc(OC2CCN(C(=O)OC(C)C)CC2)c1C.Cl", "note": "[Compound G, 1-methylethyl 4-({5-methyl-6-[(2-methyl-3-pyridinyl)oxy]-4-pyrimidinyl}oxy)-1-piperidinecarboxylate hydrochloride]", "values": [{"measurement": "appearance of 3H cholesterol (CPM) in the serum", "setting": "male Crl:CD(SD) rats; single oral dose 30 mg/kg", "value": "significant reduced"}]}, {"smiles": "CC(C)n1nnc(N2CCC([C@H](C)Oc3cnc(-c4ccc(S(C)(=O)=O)cc4)cn3)CC2)n1", "note": "[Compound I, 2-[((1S)-1-{1-[2-(1-methylethyl)-2H-tetrazol-5-yl]-4-piperidinyl}ethyl)oxy]-5-[4-(methylsulfonyl)phenyl]pyrazine]", "values": [{"measurement": "appearance of 3H cholesterol (CPM) in the serum", "setting": "male Crl:CD(SD) rats; single oral dose 30 mg/kg", "value": "significant reduced"}]}, {"smiles": "Cc1cc(S(C)(=O)=O)ccc1N1CCc2c(OC3CCN(C(=O)OC(C)C)CC3)ncnc21", "note": "[Compound H, 1-methylethyl 4-({7-[2-methyl-4-(methylsulfonyl)phenyl]-6,7-dihydro-5H-pyrrolo[2,3-d]pyrimidin-4-yl}oxy)-1-piperidinecarboxylate]", "values": [{"measurement": "appearance of 3H cholesterol (CPM) in the serum", "setting": "male Crl:CD(SD) rats; single oral dose 30 mg/kg", "value": "significant reduced"}]}, {"smiles": "C[C@@H](OC1CCN(C(=O)OC(C)(C)C)CC1)c1nc(-c2ccc(S(C)(=O)=O)c(F)c2)no1", "note": "[Compound J, 1,1-dimethylethyl 4-[((1R)-1-{3-[3-fluoro-4-(methylsulfonyl)phenyl]-1,2,4-oxadiazol-5-yl}ethyl)oxy]-1-piperidinecarboxylate]", "values": [{"measurement": "appearance of 3H cholesterol (CPM) in the serum", "setting": "male Crl:CD(SD) rats; single oral dose 30 mg/kg", "value": "significant reduced"}]}]}
